Measured values: ChEMBL document CHEMBL5154842, “Unique Carbazole-Oxadiazole Derivatives as New Potential Antibiotics for Combating Gram-Positive and -Negative Bacteria” (J Med Chem, 2022)
Converted amounts (≈) assume the structure as drawn. The source made the active and inactive calls. No cut-off for these calls is given here.

How the values were obtained:
Pseudomonas aeruginosa [1] = assay: Antibacterial activity against Pseudomonas aeruginosa assessed as inhibition of bacterial growth incubated for 24 hrs by CLSI protocol based two fold serial dilution method; type: functional
HeLa = assay: Cytotoxicity against human HeLa cells assessed as cell viability at 0.5 to 64 ug/ml incubated for 24 hrs by MTT assay; type: toxicity, cell-based; settings: dose 0.5-64 µg/ml
Staphylococcus aureus [2] = assay: Antibacterial activity against Staphylococcus aureus assessed as inhibition of bacterial growth incubated for 24 hrs by CLSI protocol based two fold serial dilution method; type: functional
Pseudomonas aeruginosa [3] = assay: Antibacterial activity against Pseudomonas aeruginosa ATCC 27853 assessed as inhibition of bacterial growth incubated for 24 hrs by CLSI protocol based two fold serial dilution method; type: functional
Staphylococcus aureus [4] = assay: Antibacterial activity against Staphylococcus aureus 29213 assessed as inhibition of bacterial growth incubated for 24 hrs by CLSI protocol based two fold serial dilution method; type: functional
Cell membrane [5] = assay: Induction of outer membrane permeabilization in Pseudomonas aeruginosa ATCC 27853 assessed as increase in NPN uptake by measuring increase in fluorescence intensity at 1 ug/ml by NPN-dye based fluorescence analysis; settings: dose 1.0 µg/ml
Escherichia coli [6] = assay: Antibacterial activity against Escherichia coli assessed as inhibition of bacterial growth incubated for 24 hrs by CLSI protocol based two fold serial dilution method; type: functional
Staphylococcus aureus [7] = assay: Antibacterial activity against Staphylococcus aureus 25923 assessed as inhibition of bacterial growth incubated for 24 hrs by CLSI protocol based two fold serial dilution method; type: functional
Acinetobacter baumannii = assay: Antibacterial activity against Acinetobacter baumannii assessed as inhibition of bacterial growth incubated for 24 hrs by CLSI protocol based two fold serial dilution method; type: functional
[8] = Hemolytic activity in human RBC assessed as hemolysis at 1 to 32 ug/ml measured after 60 mins by microplate reader assay relative to control; type: toxicity, cell-based, Erythrocyte; settings: red blood cells (erythrocytes), at 1 to 32 µg/mL, dose 1-32 µg/ml, read-out: Activity
Cell membrane [9] = assay: Induction of cell membrane disruption in Pseudomonas aeruginosa ATCC 27853 assessed as increase in protein leakage at 0.5 to 6 ug/ml incubated under agitation condition by Bradford assay; settings: dose 0.5-6 µg/ml
Staphylococcus aureus [10] = assay: Antibacterial activity against methicillin-resistant Staphylococcus aureus N315 assessed as increase in germicidal effect at 0.5 ug/ml measured after 7 hrs by microplate reader assay; type: functional, organism-based; settings: dose 0.5 µg/ml
Klebsiella pneumoniae = assay: Antibacterial activity against Klebsiella pneumonia assessed as inhibition of bacterial growth incubated for 24 hrs by CLSI protocol based two fold serial dilution method; type: functional
Staphylococcus aureus [11] = assay: Antibacterial activity against methicillin-resistant Staphylococcus aureus N315 assessed as inhibition of bacterial growth incubated for 24 hrs by CLSI protocol based two fold serial dilution method; type: functional
HEK-293T = assay: Cytotoxicity against human HEK293T cells assessed as cell viability at 0.5 to 64 ug/ml incubated for 24 hrs by MTT assay; type: toxicity, cell-based; settings: dose 0.5-64 µg/ml
Staphylococcus aureus [12] = assay: Antibacterial activity against methicillin-resistant Staphylococcus aureus N315 assessed as inhibition of bacterial growth at 0.5 to 16 ug/ml measured after 24 hrs by microplate reader assay; type: functional, organism-based; settings: dose 0.5-16 µg/ml
Cell membrane [13] = assay: Induction of cell membrane disruption in Pseudomonas aeruginosa ATCC 27853 assessed as increase in nucleotides leakage at 0.5 to 6 ug/ml incubated under agitation condition by UV absorption based analysis; type: subcellular; settings: dose 0.5-6 µg/ml
Cell membrane [14] = assay: Induction of inner membrane permeabilization in Pseudomonas aeruginosa ATCC 27853 assessed as increase in PI uptake by measuring increase in fluorescence intensity at 1 to 8 ug/ml incubated for 30 mins by calcein-AM/PI staining based fluorescence microscopic analysis; settings: dose 1-8 µg/ml
Staphylococcus aureus [15] = assay: Antibacterial activity against methicillin-resistant Staphylococcus aureus N315 assessed as inhibition of bacterial growth at 0.25 to 64 ug/ml incubated for 24 hrs by Alamar blue assay; type: functional, organism-based; settings: dose 0.25-64 µg/ml
Escherichia coli [16] = assay: Antibacterial activity against Escherichia coli 25922 assessed as inhibition of bacterial growth incubated for 24 hrs by CLSI protocol based two fold serial dilution method; type: functional
Enterococcus faecalis = assay: Antibacterial activity against Enterococcus faecalis assessed as inhibition of bacterial growth incubated for 24 hrs by CLSI protocol based two fold serial dilution method; type: functional
Staphylococcus aureus [17] = assay: Antibacterial activity against methicillin-resistant Staphylococcus aureus N315 assessed as change in susceptibility at sub-MIC treated over 9 serial passages measured after 9 days by resistance development assay; type: functional, organism-based; settings: time 9.0 day
Cell membrane [18] = assay: Induction of cell membrane disruption in methicillin-resistant Staphylococcus aureus N315 assessed as increase in nucleotides leakage at 0.5 to 6 ug/ml incubated under agitation condition by UV absorption based analysis; type: subcellular; settings: dose 0.5-6 µg/ml
Cell membrane [19] = assay: Induction of cell membrane disruption in methicillin-resistant Staphylococcus aureus N315 assessed as increase in protein leakage at 0.5 to 6 ug/ml incubated under agitation condition by Bradford assay; settings: dose 0.5-6 µg/ml
Cell membrane [20] = assay: Induction of inner membrane permeabilization in methicillin-resistant Staphylococcus aureus N315 assessed as increase in PI uptake by measuring increase in fluorescence intensity at 1 to 8 ug/ml incubated for 30 mins by calcein-AM/PI staining based fluorescence microscopic analysis; settings: dose 1-8 µg/ml, DDE = dose-dependent effect
Staphylococcus aureus [21] = assay: Antibacterial activity against methicillin-resistant Staphylococcus aureus N315 assessed as increase in germicidal effect at 4 ug/ml measured after 7 hrs by microplate reader assay; type: functional, organism-based; settings: dose 4.0 µg/ml
Erythrocyte = assay: Hemolytic activity in human RBC assessed as hemolysis rate at 1 to 32 ug/ml measured after 60 mins by microplate reader assay; type: toxicity, cell-based; settings: 1 h, dose 1-32 µg/ml
Staphylococcus aureus [22] = assay: Antibacterial activity against methicillin-resistant Staphylococcus aureus N315 assessed as increase in bactericidal effect at 2 to 8 ug/ml measured after 24 hrs by microplate reader assay; type: functional, organism-based; settings: dose 2-8 µg/ml
[23] = Toxicity against Balb/c mouse assessed as body weight at 100 mg/kg, iv administered every 2 days measured after 1 week; type: organism-based; settings: in vivo, 168 h, time 1 weeks
Staphylococcus aureus [24] = assay: Antibacterial activity against methicillin-resistant Staphylococcus aureus ATCC 43300 assessed as inhibition of bacterial growth incubated for 24 hrs by CLSI protocol based two fold serial dilution method; type: functional
Staphylococcus aureus [25] = assay: Antibacterial activity against Staphylococcus aureus ATCC 6583 assessed as inhibition of bacterial growth incubated for 24 hrs by CLSI protocol based two fold serial dilution method; type: functional
Staphylococcus aureus [26] = assay: Antibacterial activity against Staphylococcus aureus CMCC (B) 26001 assessed as inhibition of bacterial growth incubated for 24 hrs by CLSI protocol based two fold serial dilution method; type: functional
Staphylococcus aureus [27] = assay: Antibacterial activity against Staphylococcus aureus CMCC (B) 26003 assessed as inhibition of bacterial growth incubated for 24 hrs by CLSI protocol based two fold serial dilution method; type: functional
Staphylococcus aureus [28] = assay: Antibacterial activity against Staphylococcus aureus ATCC 12600 assessed as inhibition of bacterial growth incubated for 24 hrs by CLSI protocol based two fold serial dilution method; type: functional

| Compound | MIC (Pseudomonas aeruginosa [1]) | Activity (HeLa) | MIC (Staphylococcus aureus [2]) | MIC (Pseudomonas aeruginosa [3]) | MIC (Staphylococcus aureus [4]) | Activity (Cell membrane [5]) | MIC (Escherichia coli [6]) | MIC (Staphylococcus aureus [7]) | MIC (Acinetobacter baumannii) | hemolysis at 1 h [8] | Activity (Cell membrane [9]) | Activity (Staphylococcus aureus [10]) | MIC (Klebsiella pneumoniae) | MIC (Staphylococcus aureus [11]) | Activity (HEK-293T) | Activity (Staphylococcus aureus [12]) | Activity (Cell membrane [13]) | Activity (Staphylococcus aureus [15]) | MIC (Escherichia coli [16]) | MIC (Enterococcus faecalis) | also measured |
| --- | --- | --- | --- | --- | --- | --- | --- | --- | --- | --- | --- | --- | --- | --- | --- | --- | --- | --- | --- | --- | --- |
| C=CCn1c2ccccc2c2c(OCc3nnn[nH]3)cccc21 | 128 µg/mL (≈ 419 µM) | Non-Toxic | 128 µg/mL (≈ 419 µM) | 0.5 µg/mL (≈ 1.64 µM) | 32 µg/mL (≈ 105 µM) | Active | 1 µg/mL (≈ 3.28 µM) | 64 µg/mL (≈ 210 µM) | 128 µg/mL (≈ 419 µM) | < 3% | Active | Active | 64 µg/mL (≈ 210 µM) | 2 µg/mL (≈ 6.55 µM) | Non-Toxic | Active | Active | Active | 32 µg/mL (≈ 105 µM) | 4 µg/mL (≈ 13.1 µM) | Activity (Cell membrane [14]): Active |
| Sc1nnc(Cn2c3ccccc3c3c(OCC4CC4)cccc32)o1 | 256 µg/mL (≈ 728 µM) | – | 256 µg/mL (≈ 728 µM) | 4 µg/mL (≈ 11.4 µM) | 1 µg/mL (≈ 2.85 µM) | – | 2 µg/mL (≈ 5.69 µM) | 4 µg/mL (≈ 11.4 µM) | 4 µg/mL (≈ 11.4 µM) | < 3% | – | Active | 4 µg/mL (≈ 11.4 µM) | 0.5 µg/mL (≈ 1.42 µM) | – | Active | – | Active | 1 µg/mL (≈ 2.85 µM) | 2 µg/mL (≈ 5.69 µM) | Activity (Staphylococcus aureus [17]): Active; Activity (Cell membrane [18]): Active; Activity (Cell membrane [19]): Active; Activity (Cell membrane [20]): Dde |
| CCn1c2ccccc2c2c(OCc3nnn[nH]3)cccc21 | 256 µg/mL (≈ 873 µM) | Non-Toxic | 128 µg/mL (≈ 436 µM) | 1 µg/mL (≈ 3.41 µM) | 32 µg/mL (≈ 109 µM) | Active | 8 µg/mL (≈ 27.3 µM) | 32 µg/mL (≈ 109 µM) | 64 µg/mL (≈ 218 µM) | < 3% | Active | – | 64 µg/mL (≈ 218 µM) | 2 µg/mL (≈ 6.82 µM) | Non-Toxic | Active | Active | Active | 64 µg/mL (≈ 218 µM) | 4 µg/mL (≈ 13.6 µM) | Activity (Cell membrane [14]): Active |
| Sc1nnc(Cn2c3ccccc3c3c(OCC4CCCCC4)cccc32)o1 | 128 µg/mL (≈ 325 µM) | – | 256 µg/mL (≈ 651 µM) | 4 µg/mL (≈ 10.2 µM) | 4 µg/mL (≈ 10.2 µM) | – | 1 µg/mL (≈ 2.54 µM) | 4 µg/mL (≈ 10.2 µM) | 0.5 µg/mL (≈ 1.27 µM) | – | – | – | 4 µg/mL (≈ 10.2 µM) | 0.25 µg/mL (≈ 0.635 µM) | – | Active | – | Active | 0.25 µg/mL (≈ 0.635 µM) | 4 µg/mL (≈ 10.2 µM) | Activity (Staphylococcus aureus [17]): Active; Activity (Staphylococcus aureus [21]): Active; Activity (Erythrocyte): Toxic |
| C=CCOc1cccc2c1c1ccccc1n2Cc1nnc(S)o1 | 128 µg/mL (≈ 379 µM) | Non-Toxic | 256 µg/mL (≈ 759 µM) | 4 µg/mL (≈ 11.9 µM) | 0.25 µg/mL (≈ 0.741 µM) | – | 4 µg/mL (≈ 11.9 µM) | 8 µg/mL (≈ 23.7 µM) | 0.25 µg/mL (≈ 0.741 µM) | < 3% | – | – | 4 µg/mL (≈ 11.9 µM) | 2 µg/mL (≈ 5.93 µM) | Non-Toxic | Active | – | Active | 0.25 µg/mL (≈ 0.741 µM) | 1 µg/mL (≈ 2.96 µM) | Activity (Staphylococcus aureus [22]): Active; Activity [23]: Non-Toxic; MIC (Staphylococcus aureus [24]): 0.25 µg/mL (≈ 0.741 µM); Activity (Cell membrane [18]): Active; MIC (Staphylococcus aureus [25]): 0.25 µg/mL (≈ 0.741 µM); MIC (Staphylococcus aureus [26]): 0.25 µg/mL (≈ 0.741 µM); Activity (Cell membrane [19]): Active; MIC (Staphylococcus aureus [27]): 0.25 µg/mL (≈ 0.741 µM); MIC (Staphylococcus aureus [28]): 0.25 µg/mL (≈ 0.741 µM); Activity (Cell membrane [20]): Dde |
